Laboratory results as given in publication PMC8222394 (Nature Communications, 2021).
“And” between values parts separate entries of the source, which are not always exact repeats. Equal entries are not always repeated. Where two headings read alike, the source gives them in different places.

Legend:
[1] = system: SARS-CoV-2 pseudovirus; test: microbe, parasite or virus in culture; type: cell-based; details: Severe acute respiratory syndrome-related coronavirus
[2] = system: SARS-CoV-2 pseudovirus; type: cell-based
[3] = system: SARS-CoV-2 pseudovirus; type: cell-based; remark: listed apart in the source
[4] = system: SARS-CoV-2 (wildtype-USA-WA1/2020); type: cell-based
[5] = system: TMPRSS2-V5; type: cell-based, human
[6] = system: ST14; test: RT-qPCR of ST14 mRNA in Caco-2 cells; type: cell-based, human; details: Fig. S3B, Caco-2, 6 hr, relative to Veh
[7] = system: DCAF1; test: qPCR of DCAF1 gene expression in Caco-2 cells; type: cell-based, human
[8] = system: DCAF1; test: Cellular thermal shift assay, DCAF1; type: binding, human; details: Beas-2B, HFG 3 μM 1 h
[9] = system: TMPRSS2; test: In vitro transcription and translation proline treatment assay; type: biochemical; details: with or without L-proline supplementation
Procedure: TMPRSS2 constructs were synthesized in vitro using TnT Coupled Reticulocyte Lysate System (Promega) following manufacturer’s protocol. HFG plus proline assays were conducted using in vitro transcription and translation kit with free amino acids diluted 5-fold and proline supplemented at indicated concentrations. Following synthesis, products were analyzed via immunoblotting.

[10] = system: SARS-CoV-2 pseudovirus; test: Cell-based proline treatment, pseudoviral entry; details: for pseudoviral entry relative to Veh: replicates, listed as HFG
[11] = system: E-cadherin; test: Immunoblot of E-cadherin in Caco-2 cells; type: cell-based, human
[12] = system: Ace2-GFP; test: Immunoblot of Ace2-GFP in Beas-2B cells; type: cell-based
[13] = system: TMPRSS2; details: for TMPRSS2 densitometry (relative to 0): Fig. 4C, Caco-2, 18 h; for TMPRSS2 densitometry (relative to 0) / TMPRSS2 densitometry, time course: listed as HFG; for TMPRSS2 densitometry, time course: Fig. 4D, Caco-2, 3 µM
[14] = system: TMPRSS2; details: Calu-3 cells
[15] = system: TMPRSS2
[16] = target: T1, TMPRSS2 (Homo sapiens, UniProt O15393); details: Beas-2B, HFG 3 μM 1 h
Target sequence in this assay (O15393 whole entry): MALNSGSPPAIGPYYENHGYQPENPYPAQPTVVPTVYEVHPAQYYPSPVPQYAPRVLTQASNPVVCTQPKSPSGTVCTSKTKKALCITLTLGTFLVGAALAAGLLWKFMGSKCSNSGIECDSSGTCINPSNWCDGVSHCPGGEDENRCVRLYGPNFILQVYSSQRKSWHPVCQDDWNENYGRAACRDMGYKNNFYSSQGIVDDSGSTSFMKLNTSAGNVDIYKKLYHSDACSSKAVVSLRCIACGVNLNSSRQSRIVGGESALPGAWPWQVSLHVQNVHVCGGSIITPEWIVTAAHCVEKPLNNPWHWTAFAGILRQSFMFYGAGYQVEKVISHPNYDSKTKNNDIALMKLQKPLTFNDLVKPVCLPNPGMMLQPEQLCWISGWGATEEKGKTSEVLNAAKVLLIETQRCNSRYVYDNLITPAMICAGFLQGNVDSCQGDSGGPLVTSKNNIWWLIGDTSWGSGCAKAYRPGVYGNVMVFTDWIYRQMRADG

[17] = system: TMPRSS2; details: Caco-2 cells, 18 h treatment then washout
[18] = system: TMPRSS2; details: Beas-2B; for TMPRSS2 densitometry: Fig. 6A, 6 h, listed as HFG
[19] = human, 3.5 mg/day Oral; cited from earlier work
[20] = cited from earlier work
[21] = in vitro; details: human
[22] = target: T1, TMPRSS2; test: TMPRSS2 activity assay (Boc-Gln-Ala-Arg-MCA fluorescence); type: biochemical; parameters: purchased LSBio; details: for TMPRSS2 activity (FigS9 source data): replicates
Procedure: Fluorescence (380-15 nm excitation/470-20 nm emission) of the samples was monitored over 4:45 h and the slope of the curves was calculated by linear regression analysis and used as output for TMPRSS2 activity.
Target sequence in this assay (O15393 106-492): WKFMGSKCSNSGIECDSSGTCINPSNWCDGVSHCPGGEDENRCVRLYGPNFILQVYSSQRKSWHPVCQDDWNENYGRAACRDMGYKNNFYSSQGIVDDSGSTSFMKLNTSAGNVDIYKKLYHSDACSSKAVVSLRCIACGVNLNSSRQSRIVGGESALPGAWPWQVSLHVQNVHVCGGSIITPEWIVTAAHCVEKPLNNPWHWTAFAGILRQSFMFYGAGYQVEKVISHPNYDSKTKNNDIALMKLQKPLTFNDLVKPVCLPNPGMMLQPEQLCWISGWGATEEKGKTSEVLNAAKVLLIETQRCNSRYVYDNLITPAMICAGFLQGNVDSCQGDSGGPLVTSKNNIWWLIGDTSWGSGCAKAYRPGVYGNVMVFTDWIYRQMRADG

O=C(CC1NCCCC1O)Cn1cnc2cc(Br)c(Cl)cc2c1=O (stereo not drawn) [Halofuginone]
IC50 ([1]; Caco-2, read-out: In vitro IC50 (viral entry)): ~0.03 µM
IC50 ([1]; Caco-2, read-out: concentration for 50% reduction in the level of pseudoviral entry): ~0.3 µM
pseudoviral GFP expression [2]: markedly reduced levels of GFP expression
pseudoviral luciferase reporter signal [3]: dose-dependent reduction of the luciferase signal
signal relative to Control (FigS7 source data) [3]: 0.6435 and 0.5799 and 0.5278
reduction of SARS-CoV-2 viral infection [4]: highly effective in reducing SARS-CoV-2 viral infection
TMPRSS2-V5 versus LacZ-V5 expression [5]: selectively reduced TMPRSS2 expression
ST14 mRNA expression [6]: 0.847 and 0.804 and 0.672 and 1.192
DCAF1 gene expression ([7]; Caco-2, 3µM): do not affect DCAF1 gene expression
relative DCAF1 gene expression ([7]; block Vehicle/HFG/HHT, replicates, listed as HFG): 1.066 and 1.83 and 0.845 and 0.576
binding to DCAF1 [8]: does not bind
synthesis of TMPRSS2 [9]: can inhibit the in vitro and in vivo synthesis of TMPRSS2 in a proline-dependent fashion
pseudoviral entry relative to Veh ([10]; concentration 0.0137 (unit not given), 0mM Proline): 152.697 and 134.687 and 120.427 and 97.7116 and 89.0983 and 90.8546 and 80.2015 and 88.7016
pseudoviral entry relative to Veh ([10]; concentration 0.0137 (unit not given), 1mM Proline): 78.8997 and 119.296 and 92.4783 and 61.8538 and 121.318 and 103.717 and 95.0292 and 87.0468
pseudoviral entry relative to Veh ([10]; concentration 0.0137 (unit not given), 5mM Proline): 83.8659 and 82.9011 and 90.5346 and 126.552 and 83.6269 and 86.2224 and 92.3835 and 76.5378
pseudoviral entry relative to Veh ([10]; concentration 0.0412 (unit not given), 0mM Proline): 135.074 and 83.8509 and 103.144 and 111.461 and 116.846 and 105.51 and 105.878 and 113.705
pseudoviral entry relative to Veh ([10]; concentration 0.0412 (unit not given), 1mM Proline): 110.112 and 97.4283 and 87.7103 and 127.69 and 97.5882 and 67.824 and 78.2944 and 117.716
pseudoviral entry relative to Veh ([10]; concentration 0.0412 (unit not given), 5mM Proline): 82.5299 and 121.265 and 73.6811 and 85.0503 and 103.755 and 88.171 and 83.5837 and 102.919
pseudoviral entry relative to Veh ([10]; concentration 0.123 (unit not given), 0mM Proline): 99.7343 and 63.0974 and 80.3685 and 70.3519 and 79.4198 and 74.6305 and 82.2505 and 58.3341
pseudoviral entry relative to Veh ([10]; concentration 0.123 (unit not given), 1mM Proline): 81.4705 and 100.257 and 127.468 and 88.584 and 113.575 and 85.4328 and 91.2395 and 78.3868
pseudoviral entry relative to Veh ([10]; concentration 0.123 (unit not given), 5mM Proline): 62.4818 and 82.8199 and 109.855 and 101.172 and 80.2202 and 78.6211 and 92.2054 and 82.6012
pseudoviral entry relative to Veh ([10]; concentration 0.37 (unit not given), 0mM Proline): 52.2274 and 41.9717 and 59.924 and 47.6381 and 40.7991 and 39.6967 and 44.7511 and 47.5163
pseudoviral entry relative to Veh ([10]; concentration 0.37 (unit not given), 1mM Proline): 63.0963 and 89.0802 and 95.5491 and 76.9085 and 75.5967 and 54.6206 and 124.078 and 94.9093
pseudoviral entry relative to Veh ([10]; concentration 0.37 (unit not given), 5mM Proline): 84.0152 and 111.59 and 116.82 and 90.6831 and 82.0915 and 111.563 and 85.8373 and 95.0829
protection against pseudoviral entry with proline augmentation ([10]; proline added to cell culture media): ablated
E-cadherin protein [11]: unaffected
Ace2 protein [12]: unaffected
time to substantial reduction in TMPRSS2 expression ([13]; Caco-2 cells, 3 µM): within three hours
endogenous TMPRSS2 protein expression ([13]; Caco-2 cells, 18 h): marked reduction
TMPRSS2 densitometry (relative to 0) ([13]; head 1 (unit not given)): 0.1807 and 0.1069
TMPRSS2 densitometry (relative to 0) ([13]; head 3): 0.1607 and 0.08785
TMPRSS2 densitometry, time course ([13]; time head 3): 0.6876 and 0.6922 and 0.7386
TMPRSS2 densitometry, time course ([13]; time head 6): 0.2973 and 0.5193 and 0.5743
TMPRSS2 densitometry, time course ([13]; time head 24): 0.2861 and 0.2479 and 0.396
TMPRSS2 protein levels [14]: qualitatively similar decreases
TMPRSS2 transcription ([15]; Caco-2 cells): modestly increased
TMPRSS2 mRNA expression, Set1 ([15]; Fig. S3B, Caco-2, 6 hr, relative to Veh): 1.663 and 2.342 and 1.988 and 2.135
binding to TMPRSS2 [16]: does not bind
recovery of TMPRSS2 levels after drug removal [17]: returned close to baseline roughly six hours after drug removal
effect on TMPRSS2 protein levels in DCAF1-knockdown cells ([18]; DCAF1 siRNA): abrogated
TMPRSS2 expression in control knockdown cells ([18]; control siRNA): reduced TMPRSS2 expression
TMPRSS2 densitometry ([18]; Ctrl siRNA, HFG 100 nM): 0.643 and 0.6245 and 0.6321
TMPRSS2 densitometry ([18]; Ctrl siRNA, HFG 300 nM): 0.4952 and 0.3574 and 0.5989
TMPRSS2 densitometry ([18]; DCAF1 KD 1, HFG 100 nM): 1.233 and 1.219 and 1.274
TMPRSS2 densitometry ([18]; DCAF1 KD 1, HFG 300 nM): 1.254 and 1.215 and 1.261
TMPRSS2 densitometry ([18]; DCAF1 KD 2, HFG 100 nM): 1.233 and 1.237 and 1.31
TMPRSS2 densitometry ([18]; DCAF1 KD 2, HFG 300 nM): 1.246 and 1.239 and 1.116
Cmax [19]: 7 nM
toxicity profile [20]: very mild toxicity profile and is generally well tolerated
CC50 [21]: ~5.54 µM
TMPRSS2 activity (FigS9 source data) ([22]; 0.08 µM): 0.4091 and 0.4156 and 0.3953 and 0.4416
TMPRSS2 activity (FigS9 source data) ([22]; 0.4 µM): 0.4106 and 0.359 and 0.3929 and 0.3576
TMPRSS2 activity (FigS9 source data) ([22]; 2 µM): 0.4305 and 0.3555 and 0.3601 and 0.3121
TMPRSS2 catalytic activity ([22]; recombinant TMPRSS2, preliminary): does not inhibit TMPRSS2 catalytic activity
